Reference: the NIST ThermoML archive (doi:10.1021/acs.jced.6b00606)

Test: xn = mol fraction of the nth substance listed
Settings: 100 kPa, Liquid; for speed of sound: Frequency=3 MHz, Sing-around technique in a fixed-path interferometer; for mass density: Vibrating tube method

O=C1CCCCCC1 [cycloheptanone] + C1CCOCC1
Settings | mass density, 293.15 K [kg/m3] | mass density, 298.15 K [kg/m3] | mass density, 303.15 K [kg/m3] | mass density, 308.15 K [kg/m3] | speed of sound, 293.15 K [m/s] | speed of sound, 298.15 K [m/s] | speed of sound, 303.15 K [m/s] | speed of sound, 308.15 K [m/s]
x2 = 0.0845 | 948.05 | 943.9 | 939.65 | 935.43 | 1457.2 | 1435 | 1411.9 | 1389.1
x2 = 0.1276 | 946.02 | 941.88 | 937.63 | 933.42 | 1447.3 | 1424.9 | 1401.8 | 1378.9
x2 = 0.1794 | 943.48 | 939.35 | 935.11 | 930.88 | 1435.5 | 1413 | 1389.8 | 1366.9
x2 = 0.2172 | 941.57 | 937.43 | 933.19 | 928.95 | 1427.2 | 1404.5 | 1381.3 | 1358.4
x2 = 0.254 | 939.66 | 935.51 | 931.26 | 927.02 | 1419.2 | 1396.5 | 1373.2 | 1350.2
x2 = 0.3098 | 936.64 | 932.46 | 928.23 | 923.95 | 1407.4 | 1384.5 | 1361.1 | 1338.2
x2 = 0.341 | 934.9 | 930.72 | 926.47 | 922.18 | 1400.9 | 1378 | 1354.6 | 1331.6
x2 = 0.3982 | 931.59 | 927.36 | 923.12 | 918.8 | 1389.4 | 1366.4 | 1342.9 | 1319.9
x2 = 0.4407 | 929.02 | 924.78 | 920.53 | 916.18 | 1381.2 | 1358 | 1334.6 | 1311.6
x2 = 0.4986 | 925.38 | 921.12 | 916.82 | 912.46 | 1370.2 | 1346.9 | 1323.6 | 1300.6
x2 = 0.5312 | 923.24 | 918.96 | 914.66 | 910.27 | 1364.3 | 1340.9 | 1317.5 | 1294.6
x2 = 0.5779 | 920.07 | 915.78 | 911.43 | 907.03 | 1355.9 | 1332.6 | 1309.2 | 1286.3
x2 = 0.6295 | 916.42 | 912.11 | 907.7 | 903.26 | 1347.1 | 1323.7 | 1300.3 | 1277.4
x2 = 0.6717 | 913.29 | 908.95 | 904.49 | 900.02 | 1340.1 | 1316.6 | 1293.3 | 1270.5
x2 = 0.7229 | 909.34 | 904.97 | 900.41 | 895.9 | 1331.9 | 1308.4 | 1285.2 | 1262.4
x2 = 0.7686 | 905.66 | 901.22 | 896.58 | 892.03 | 1324.8 | 1301.4 | 1278.2 | 1255.4
x2 = 0.8202 | 901.28 | 896.77 | 892.03 | 887.39 | 1317.2 | 1293.7 | 1270.6 | 1247.9
x2 = 0.8742 | 896.48 | 891.84 | 886.98 | 882.23 | 1309.5 | 1286.1 | 1263 | 1240.4

O=C1CCCCC1 [cyclohexanone] + C1COCCO1
Settings | mass density, 293.15 K [kg/m3] | mass density, 298.15 K [kg/m3] | mass density, 303.15 K [kg/m3] | mass density, 308.15 K [kg/m3] | speed of sound, 293.15 K [m/s] | speed of sound, 298.15 K [m/s] | speed of sound, 303.15 K [m/s] | speed of sound, 308.15 K [m/s]
x2 = 0.0999 | 953.66 | 949.13 | 944.25 | 939.34 | 1423.2 | 1407.2 | 1387 | 1367.1
x2 = 0.1548 | 957.29 | 952.73 | 947.83 | 942.9 | 1419 | 1402.8 | 1382.6 | 1362.7
x2 = 0.2064 | 960.83 | 956.23 | 951.32 | 946.37 | 1415.2 | 1398.7 | 1378.5 | 1358.7
x2 = 0.2523 | 964.08 | 959.45 | 954.52 | 949.56 | 1411.8 | 1395.1 | 1374.9 | 1355
x2 = 0.3087 | 968.21 | 963.55 | 958.59 | 953.6 | 1407.8 | 1390.8 | 1370.6 | 1350.6
x2 = 0.3412 | 970.67 | 965.97 | 960.99 | 955.99 | 1405.5 | 1388.3 | 1368.1 | 1348.1
x2 = 0.3952 | 974.86 | 970.12 | 965.11 | 960.08 | 1401.8 | 1384.3 | 1364 | 1343.9
x2 = 0.4315 | 977.76 | 972.99 | 967.96 | 962.9 | 1399.3 | 1381.6 | 1361.3 | 1341.2
x2 = 0.4875 | 982.38 | 977.54 | 972.47 | 967.38 | 1395.6 | 1377.6 | 1357.2 | 1336.9
x2 = 0.5348 | 986.41 | 981.52 | 976.42 | 971.29 | 1392.5 | 1374.2 | 1353.8 | 1333.5
x2 = 0.5798 | 990.36 | 985.42 | 980.28 | 975.11 | 1389.7 | 1371.1 | 1350.6 | 1330.2
x2 = 0.6145 | 993.49 | 988.51 | 983.33 | 978.13 | 1387.5 | 1368.7 | 1348.2 | 1327.7
x2 = 0.6698 | 998.63 | 993.56 | 988.34 | 983.08 | 1384.1 | 1365 | 1344.4 | 1323.8
x2 = 0.7148 | 1002.9 | 997.82 | 992.55 | 987.23 | 1381.5 | 1362 | 1341.4 | 1320.7
x2 = 0.7682 | 1008.2 | 1003 | 997.69 | 992.32 | 1378.5 | 1358.7 | 1338 | 1317.1
x2 = 0.8015 | 1011.6 | 1006.4 | 1001 | 995.58 | 1376.8 | 1356.7 | 1335.9 | 1314.9
x2 = 0.8542 | 1017.2 | 1011.8 | 1006.4 | 1000.8 | 1374.1 | 1353.6 | 1332.7 | 1311.5
x2 = 0.9054 | 1022.7 | 1017.3 | 1011.7 | 1006.2 | 1371.7 | 1350.8 | 1329.6 | 1308.3
